biological target: human GluN1/GluN2B NMDA receptors (Homo sapiens, UniProt Q05586+Q13224); test: Cell-based calcium flux (FLIPR) assay on cloned human NR1/NR2B ion channels expressed in mammalian cells; details: standard assay; glutamate at ~EC80; FLIPR calcium flux
Summary of the method: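 Calcium influx followed by FLIPR fluorescence after 5 min compound exposure and a further 5 min co-agonist challenge: 10 μM glycine with glutamate at ~EC80 (standard) or EC40 (HTS).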

Sequence of human GluN1/GluN2B NMDA receptors (Q13224 27-1484, other chains not shown): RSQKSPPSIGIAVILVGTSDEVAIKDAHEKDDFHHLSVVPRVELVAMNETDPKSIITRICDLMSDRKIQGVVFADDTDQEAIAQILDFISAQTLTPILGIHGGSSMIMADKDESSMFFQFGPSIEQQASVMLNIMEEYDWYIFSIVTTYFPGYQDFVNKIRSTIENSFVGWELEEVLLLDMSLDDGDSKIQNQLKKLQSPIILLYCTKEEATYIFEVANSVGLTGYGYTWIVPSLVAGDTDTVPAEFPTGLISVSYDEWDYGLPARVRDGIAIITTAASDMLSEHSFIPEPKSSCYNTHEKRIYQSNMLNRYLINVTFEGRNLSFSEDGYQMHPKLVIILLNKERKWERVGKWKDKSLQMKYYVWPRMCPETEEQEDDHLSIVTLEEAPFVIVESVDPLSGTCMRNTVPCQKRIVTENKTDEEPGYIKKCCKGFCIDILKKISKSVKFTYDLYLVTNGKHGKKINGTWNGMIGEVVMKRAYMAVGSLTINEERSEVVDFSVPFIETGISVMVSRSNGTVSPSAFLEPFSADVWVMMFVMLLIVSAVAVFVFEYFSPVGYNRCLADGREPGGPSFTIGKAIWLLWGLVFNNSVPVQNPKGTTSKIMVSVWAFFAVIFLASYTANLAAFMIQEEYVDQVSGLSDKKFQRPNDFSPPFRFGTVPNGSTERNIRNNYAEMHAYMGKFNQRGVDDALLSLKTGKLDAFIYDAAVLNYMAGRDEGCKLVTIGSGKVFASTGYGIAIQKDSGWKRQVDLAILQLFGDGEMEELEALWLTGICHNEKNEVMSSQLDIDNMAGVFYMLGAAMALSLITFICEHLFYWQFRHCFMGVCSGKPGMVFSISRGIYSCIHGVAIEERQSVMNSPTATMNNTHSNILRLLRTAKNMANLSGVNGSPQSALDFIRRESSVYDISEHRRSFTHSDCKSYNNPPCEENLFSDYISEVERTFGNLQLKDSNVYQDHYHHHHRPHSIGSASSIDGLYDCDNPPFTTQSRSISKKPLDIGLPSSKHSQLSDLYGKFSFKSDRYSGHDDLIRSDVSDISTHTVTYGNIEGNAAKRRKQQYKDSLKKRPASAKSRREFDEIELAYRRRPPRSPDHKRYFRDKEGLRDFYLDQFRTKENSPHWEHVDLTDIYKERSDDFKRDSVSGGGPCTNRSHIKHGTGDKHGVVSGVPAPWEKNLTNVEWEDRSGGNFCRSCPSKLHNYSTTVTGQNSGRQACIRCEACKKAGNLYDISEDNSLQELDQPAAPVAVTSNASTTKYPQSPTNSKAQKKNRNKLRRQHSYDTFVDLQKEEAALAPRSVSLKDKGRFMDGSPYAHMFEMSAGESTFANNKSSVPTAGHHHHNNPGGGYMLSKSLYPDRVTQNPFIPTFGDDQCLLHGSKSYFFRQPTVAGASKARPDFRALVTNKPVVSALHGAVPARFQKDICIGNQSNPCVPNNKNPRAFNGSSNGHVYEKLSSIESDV

Compound	IC50
CC(F)(F)c1cc(-n2cc(COc3ncc(CO)cn3)nn2)ccc1F [Example 571, [2-[[1-[3-(1,1-difluoroethyl)-4-fluoro-phenyl]triazol-4-yl]methoxy]pyrimidin-5-yl]methanol]	0.021 µM
CC(F)(F)c1cc(-n2cc(COc3ncc(OC(F)F)cn3)nn2)ccc1F [Example 572, 2-[[1-[3-(1,1-Difluoroethyl)-4-fluoro-phenyl]triazol-4-yl]methoxy]-5-(difluoromethoxy)pyrimidine]	0.025 µM
Cc1cnc(OCc2cn(-c3ccc(F)c(C(C)(F)F)c3)nn2)nc1C [Example 573, 2-[[1-[3-(1,1-Difluoroethyl)-4-fluoro-phenyl]triazol-4-yl]methoxy]-4,5-dimethyl-pyrimidine]	0.019 µM
Cc1nc(OCc2cn(-c3ccc(F)c(C(C)(F)F)c3)nn2)ncc1Cl [Example 574, 5-Chloro-2-[[1-[3-(1,1-difluoroethyl)-4-fluoro-phenyl]triazol-4-yl]methoxy]-4-methyl-pyrimidine]	0.01 µM
Cc1nc(OCc2cn(-c3ccc(F)c(C(C)(F)F)c3)nn2)ncc1F [Example 575, 2-[[1-[3-(1,1-Difluoroethyl)-4-fluoro-phenyl]triazol-4-yl]methoxy]-5-fluoro-4-methyl-pyrimidine]	0.006 µM
Cc1cnc(OCc2cn(-c3ccc(F)c(C(C)(F)F)c3)nn2)nc1N [Example 576, 2-[[1-[3-(1,1-Difluoroethyl)-4-fluoro-phenyl]triazol-4-yl]methoxy]-5-methyl-pyrimidin-4-amine]	0.017 µM
CNc1nc(OCc2cn(-c3ccc(F)c(C(C)(F)F)c3)nn2)ncc1C [Example 577, 2-[[1-[3-(1,1-Difluoroethyl)-4-fluoro-phenyl]triazol-4-yl]methoxy]-N,5-dimethyl-pyrimidin-4-amine]	0.128 µM
CNc1nc(OCc2cn(-c3ccc(F)c(C(C)(F)F)c3)nn2)ncc1F [Example 578, 2-[[1-[3-(1,1-Difluoroethyl)-4-fluoro-phenyl]triazol-4-yl]methoxy]-5-fluoro-N-methyl-pyrimidin-4-amine]	0.14 µM
Cc1cnc(OCc2cn(-c3ccc(F)c(C(C)(F)F)c3)nn2)nc1N(C)C [Example 579, 2-[[1-[3-(1,1-Difluoroethyl)-4-fluoro-phenyl]triazol-4-yl]methoxy]-N,N,5-trimethyl-pyrimidin-4-amine]	0.087 µM
CC(F)(F)c1cc(-n2cc(COc3nccc(N)n3)nn2)ccc1F [Example 580, 2-[[1-[3-(1,1-Difluoroethyl)-4-fluoro-phenyl]triazol-4-yl]methoxy]pyrimidin-4-amine]	0.088 µM
CNc1ccnc(OCc2cn(-c3ccc(F)c(C(C)(F)F)c3)nn2)n1 [Example 581, 2-[[1-[3-(1,1-Difluoroethyl)-4-fluoro-phenyl]triazol-4-yl]methoxy]-N-methyl-pyrimidin-4-amine]	0.033 µM
CN(C)c1ccnc(OCc2cn(-c3ccc(F)c(C(C)(F)F)c3)nn2)n1 [Example 582, 2-[[1-[3-(1,1-Difluoroethyl)-4-fluoro-phenyl]triazol-4-yl]methoxy]-N,N-dimethyl-pyrimidin-4-amine]	0.028 µM
CC(F)(F)c1cc(-n2cc(COc3ncc(C#N)cn3)nn2)ccc1F [Example 583, 2-[[1-[3-(1,1-Difluoroethyl)-4-fluoro-phenyl]triazol-4-yl]methoxy]pyrimidine-5-carbonitrile]	0.067 µM
CC(F)(F)c1cc(-n2cc(COc3ncc(S(C)(=O)=O)cn3)nn2)ccc1F [Example 584, 2-[[1-[3-(1,1-Difluoroethyl)-4-fluoro-phenyl]triazol-4-yl]methoxy]-5-methylsulfonyl-pyrimidine]	0.199 µM
CC(=O)c1cnc(OCc2cn(-c3ccc(F)c(C(C)(F)F)c3)nn2)nc1 [Example 585, 1-[2-[[1-[3-(1,1-Difluoroethyl)-4-fluoro-phenyl]triazol-4-yl]methoxy]pyrimidin-5-yl]ethanone]	0.011 µM
CC(F)(F)c1cc(-n2cc(COc3ncc(C4CC4)cn3)nn2)ccc1F [Example 587, 5-Cyclopropyl-2-[[1-[3-(1,1-difluoroethyl)-4-fluoro-phenyl]triazol-4-yl]methoxy]pyrimidine]	0.041 µM
CC(F)(F)c1cc(-n2cc(COc3ncc(N4CCC4)cn3)nn2)ccc1F [Example 588, 5-(Azetidin-1-yl)-2-[[1-[3-(1,1-difluoroethyl)-4-fluoro-phenyl]triazol-4-yl]methoxy]pyrimidine]	0.034 µM
CC(F)(F)c1cc(-n2cc(COc3ncc(N4CC(F)C4)cn3)nn2)ccc1F [Example 589, 2-((1-(3-(1,1-Difluoroethyl)-4-fluorophenyl)-1H-1,2,3-triazol-4-yl)methoxy)-5-(3-fluoroazetidin-1-yl)pyrimidine]	0.013 µM
CN(C)c1cnc(OCc2cn(-c3ccc(F)c(C(C)(F)F)c3)nn2)nc1 [Example 590, 2-((1-(3-(1,1-Difluoroethyl)-4-fluorophenyl)-1H-1,2,3-triazol-4-yl)methoxy)-N,N-dimethylpyrimidin-5-amine]	0.039 µM
CC(F)(F)c1cc(-n2cc(COc3nccc(N4CCCC4)n3)nn2)ccc1F [Example 591, 2-[[1-[3-(1,1-Difluoroethyl)-4-fluoro-phenyl]triazol-4-yl]methoxy]-4-pyrrolidin-1-yl-pyrimidine]	0.016 µM
CC(F)(F)c1cc(-n2cc(COc3nccc(N4CCCCC4)n3)nn2)ccc1F [Example 592, 2-[[1-[3-(1,1-Difluoroethyl)-4-fluoro-phenyl]triazol-4-yl]methoxy]-4-(1-piperidyl)pyrimidine]	0.271 µM

Compound	IC50
CCc1cnc(OCc2nnn(-c3ccc(F)c(C(C)(F)F)c3)c2C)nc1 [Example 593, 2-[[1-[3-(1,1-Difluoroethyl)-4-fluoro-phenyl]-5-methyl-triazol-4-yl]methoxy]-5-ethyl-pyrimidine]	0.486 µM
Cc1c(COc2ncc(C3CC3)cn2)nnn1-c1ccc(F)c(C(C)(F)F)c1 [Example 594, 5-Cyclopropyl-2-[[1-[3-(1,1-difluoroethyl)-4-fluoro-phenyl]-5-methyl-triazol-4-yl]methoxy]pyrimidine]	0.171 µM
Cc1cnc(OCc2nnn(-c3ccc(F)c(C(C)(F)F)c3)c2C)nc1C [Example 595, 2-[[1-[3-(1,1-Difluoroethyl)-4-fluoro-phenyl]-5-methyl-triazol-4-yl]methoxy]-4,5-dimethyl-pyrimidine]	0.706 µM
Cc1nc(OCc2nnn(-c3ccc(F)c(C(C)(F)F)c3)c2C)ncc1Cl [Example 596, 5-Chloro-2-[[1-[3-(1,1-difluoroethyl)-4-fluoro-phenyl]-5-methyl-triazol-4-yl]methoxy]-4-methyl-pyrimidine]	0.601 µM
Fc1ccc(-n2cc(COc3ncccn3)nn2)cc1F [Example 597, 2-[[1-(3,4-Difluorophenyl)triazol-4-yl]methoxy]pyrimidine]	2.1 µM
Fc1cnc(OCc2cn(-c3ccc(F)c(F)c3)nn2)nc1 [Example 598, 2-[[1-(3,4-Difluorophenyl)triazol-4-yl]methoxy]-5-fluoro-pyrimidine]	1.45 µM
COc1cnc(OCc2cn(-c3ccc(F)c(F)c3)nn2)nc1 [Example 599, 2-[[1-(3,4-Difluorophenyl)triazol-4-yl]methoxy]-5-methoxy-pyrimidine]	0.034 µM
Fc1ccc(-n2cc(COc3ncc(Cl)cn3)nn2)cc1F [Example 600, 5-Chloro-2-[[1-(3,4-difluorophenyl)triazol-4-yl]methoxy]pyrimidine]	0.238 µM
Cc1cnc(OCc2cn(-c3ccc(F)c(F)c3)nn2)nc1 [Example 601, 2-[[1-(3,4-Difluorophenyl)triazol-4-yl]methoxy]-5-methyl-pyrimidine]	0.048 µM
CCc1cnc(OCc2cn(-c3ccc(F)c(F)c3)nn2)nc1 [Example 602, 2-[[1-(3,4-Difluorophenyl)triazol-4-yl]methoxy]-5-ethyl-pyrimidine]	0.023 µM
Cc1cnc(OCc2cn(-c3cc(F)ccc3F)nn2)nc1 [Example 603, 2-[[1-(2,5-Difluorophenyl)triazol-4-yl]methoxy]-5-methyl-pyrimidine]	10.4 µM
CC(C)(O)c1cnc(OCc2cn(-c3cc(F)ccc3F)nn2)nc1 [Example 604, 2-[2-[[1-(2,5-Difluorophenyl)triazol-4-yl]methoxy]pyrimidin-5-yl]propan-2-ol]	79.7 µM
Fc1cccc(-n2cc(COc3ncc(Cl)cn3)nn2)c1F [Example 605, 5-Chloro-2-[[1-(2,3-difluorophenyl)triazol-4-yl]methoxy]pyrimidine]	4.36 µM
Fc1cnc(OCc2cn(-c3cccc(F)c3F)nn2)nc1 [Example 606, 2-[[1-(2,3-Difluorophenyl)triazol-4-yl]methoxy]-5-fluoro-pyrimidine]	17.5 µM
Fc1cccc(-n2cc(COc3ncccn3)nn2)c1F [Example 607, 2-[[1-(2,3-Difluorophenyl)triazol-4-yl]methoxy]pyrimidine]	3.43 µM
CC(C)(O)c1cnc(OCc2cn(-c3cccc(F)c3F)nn2)nc1 [Example 608, 2-[2-[[1-(2,3-Difluorophenyl)triazol-4-yl]methoxy]pyrimidin-5-yl]propan-2-ol]	> 10 µM
Cc1cnc(OCc2cn(-c3cccc(Cl)c3F)nn2)nc1 [Example 610, 2-[[1-(3-Chloro-2-fluoro-phenyl)triazol-4-yl]methoxy]-5-methyl-pyrimidine]	1.03 µM
Fc1c(Cl)cccc1-n1cc(COc2ncccn2)nn1 [Example 611, 2-[[1-(3-Chloro-2-fluoro-phenyl)triazol-4-yl]methoxy]pyrimidine]	> 10 µM
Fc1c(Cl)cccc1-n1cc(COc2ncc(Cl)cn2)nn1 [Example 612, 5-Chloro-2-[[1-(3-chloro-2-fluoro-phenyl)triazol-4-yl]methoxy]pyrimidine]	1.74 µM
Cc1nc(OCc2cn(-c3cccc(Cl)c3F)nn2)ncc1F [Example 613, 2-[[1-(3-Chloro-2-fluoro-phenyl)triazol-4-yl]methoxy]-5-fluoro-4-methyl-pyrimidine]	1.44 µM
Fc1cnc(OCc2cn(-c3cccc(Cl)c3F)nn2)nc1 [Example 614, 2-[[1-(3-Chloro-2-fluoro-phenyl)triazol-4-yl]methoxy]-5-fluoro-pyrimidine]	4.03 µM

Source: US10233173B2, “Substituted 1,2,3-triazoles as NR2B-selective NMDA modulators” (JANSSEN PHARMACEUTICA NV, priority 2016, dated 2019)
